In US20230391760A1, “HETEROCYCLIC GLP-1 AGONISTS” (Gasherbrum Bio, Inc., priority 2020, published 2023):

Molecular target: GLP-1 Receptor (Homo sapiens, UniProt P43220)
Assay: GLP-1R agonist cAMP stimulation assay (HEK293/GLP1R/CRE-LUC cells, cAMP dynamic 2 Kit)
Format: cell-based
Details: HEK293/CRE-Luc cell line stably expressing the GLP-1 Receptor, 30 min at 37° C.
Procedure, shortened: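 HEK293 cells stably expressing human GLP-1R with CRE-luciferase, 1000 cells/well in DPBS with 0.5 mM IBMX and 0.1% BSA, treated with compound in 1/2-log serial dilution for 30 min at 37 °C. cAMP then detected by HTRF (cAMP-d2 plus anti-cAMP cryptate), 1 h at room temperature in the dark.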

Chain of GLP-1 Receptor (P43220 24-463, species assumed): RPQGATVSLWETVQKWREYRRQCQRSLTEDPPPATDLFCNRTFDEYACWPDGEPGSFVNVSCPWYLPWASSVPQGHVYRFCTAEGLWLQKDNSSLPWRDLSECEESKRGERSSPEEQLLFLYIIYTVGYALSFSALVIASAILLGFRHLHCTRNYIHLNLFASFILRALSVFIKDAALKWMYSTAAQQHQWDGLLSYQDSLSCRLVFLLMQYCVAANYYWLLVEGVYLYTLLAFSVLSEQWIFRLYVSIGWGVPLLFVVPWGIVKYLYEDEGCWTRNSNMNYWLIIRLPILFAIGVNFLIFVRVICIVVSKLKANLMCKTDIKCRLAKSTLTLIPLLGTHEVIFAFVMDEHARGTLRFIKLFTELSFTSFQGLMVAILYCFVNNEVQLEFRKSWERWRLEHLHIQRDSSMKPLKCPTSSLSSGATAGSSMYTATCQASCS

| SMILES | EC50 [nM] |
| --- | --- |
| CC1(c2ccc(Cl)cc2F)Oc2cccc(C3CCN(Cc4nc5cc(-c6n[nH]c(=O)[nH]6)ccc5n4C[C@@H]4CCO4)CC3)c2O1 (stereo partly drawn) [Compound 355a, 3-[2-({4-[2-(4-chloro-2-fluorophenyl)-2-methyl-2H-1,3-benzodioxol-4-yl]piperidin-1-yl}methyl)-1-{[(2S)-oxetan-2-yl]methyl}-1H-1,3-benzodiazol-5-yl]-4,5-dihydro-1H-1,2,4-triazol-5-one] | 7 |
| O=C(Nc1ccc2c(c1)nc(CN1CCC(c3cccc(OCc4ccc(Cl)cc4F)n3)CC1)n2C[C@@H]1CCO1)C1COCCC1(F)F (stereo partly drawn) [Compound 189a, N-{2-[(4-{6-[(4-chloro-2-fluorophenyl)methoxy]pyridin-2-yl}piperidin-1-yl)methyl]-1-{[(2S)-oxetan-2-yl]methyl}-1H-1,3-benzodiazol-5-yl}-4,4-difluorooxane-3-carboxamide] | 0.82 |
| C[C@H]1CN(c2nc(OCc3ccc(Cl)cc3F)ccc2F)CCN1Cc1nc2cc(-c3nnc(C(F)(F)F)[nH]3)ncc2n1C[C@@H]1CCO1 [Compound 525a, (2S)-4-{6-[(4-chloro-2-fluorophenyl)methoxy]-3-fluoropyridin-2-yl}-2-methyl-1-[(3-{[(2S)-oxetan-2-yl]methyl}-6-[5-(trifluoromethyl)-4H-1,2,4-triazol-3-yl]-3H-imidazo[4,5-c]pyridin-2-yl)methyl]piperazine] | 0.026 |
| Cc1nnc(-c2ccc3c(c2)nc(CN2CCC(c4cccc5c4O[C@@](C)(c4ccc(C(N)=O)cc4F)O5)CC2)n3C[C@@H]2CCO2)[nH]1 [Compound 410b, 3-fluoro-4-[(2S)-2-methyl-4-(1-{[5-(5-methyl-4H-1,2,4-triazol-3-yl)-1-{[(2S)-oxetan-2-yl]methyl}-1H-1,3-benzodiazol-2-yl]methyl}piperidin-4-yl)-2H-1,3-benzodioxol-2-yl]benzamide] | 0.082 |
| CC(C(=O)Nc1ccc2c(c1)nc(CN1CCC(c3cccc(OCc4ccc(Cl)cc4F)n3)CC1)n2C[C@@H]1CCO1)c1cnn(C)c1 (stereo partly drawn) [Compound 182a, N-{2-[(4-{6-[(4-chloro-2-fluorophenyl)methoxy]pyridin-2-yl}piperidin-1-yl)methyl]-1-{[(2S)-oxetan-2-yl]methyl}-1H-1,3-benzodiazol-5-yl}-2-(1-methyl-1H-pyrazol-4-yl)propanamide] | 2.5 |
| N#Cc1ccc(COc2cc(C3=CCN(Cc4nc5cc(-c6noc(=O)[nH]6)cnc5n4C[C@@H]4CCO4)CC3)ccc2F)c(F)c1 [Compound 295a, 3-fluoro-4-[(2-fluoro-5-{1-[(3-{[(2S)-oxetan-2-yl]methyl}-6-(5-oxo-4,5-dihydro-1,2,4-oxadiazol-3-yl)-3H-imidazo[4,5-b]pyridin-2-yl)methyl]-1,2,3,6-tetrahydropyridin-4-yl}phenoxy)methyl]benzonitrile] | 2.6 |
| C[C@]1(c2ccc(Cl)cn2)Oc2cccc(C3CCN(Cc4nc5cc(-c6n[nH]c(C(F)(F)F)n6)cnc5n4C[C@@H]4CCO4)CC3)c2O1 (single isomer, unassigned) [Compound 333c] | 0.95 |
| CC1(c2ccc(Cl)cn2)Oc2cccc(C3CCN(Cc4nc5cc(-c6nnn[nH]6)ncc5n4C[C@@H]4CCO4)CC3)c2O1 (stereo partly drawn) [Compound 450a, 5-chloro-2-(2-methyl-4-{1-[(3-{[(2S)-oxetan-2-yl]methyl}-6-(1H-1,2,3,4-tetrazol-5-yl)-3H-imidazo[4,5-c]pyridin-2-yl)methyl]piperidin-4-yl}-2H-1,3-benzodioxol-2-yl)pyridine] | 0.062 |
| Fc1cc(Cl)ccc1COc1ccc(F)c(N2CCN(Cc3nc4cc(-c5nnc(C(F)(F)F)[nH]5)cnc4n3C[C@@H]3CCO3)CC2)n1 [Compound 513a, 1-{6-[(4-chloro-2-fluorophenyl)methoxy]-3-fluoropyridin-2-yl}-4-[(3-{[(2S)-oxetan-2-yl]methyl}-6-[5-(trifluoromethyl)-4H-1,2,4-triazol-3-yl]-3H-imidazo[4,5-b]pyridin-2-yl)methyl]piperazine] | 0.064 |
| CO[C@H](C)Cn1c(CN2CCC(c3cccc4c3O[C@@](C)(c3ccc(Cl)cn3)O4)CC2)nc2cc(-c3nnc(C(F)(F)F)[nH]3)nnc21 [Compound 473a, 5-chloro-2-[(2S)-4-[1-({7-[(2R)-2-methoxypropyl]-3-[5-(trifluoromethyl)-4H-1,2,4-triazol-3-yl]-7H-imidazo[4,5-c]pyridazin-6-yl}methyl)piperidin-4-yl]-2-methyl-2H-1,3-benzodioxol-2-yl]pyridine] | 0.46 |
| CC1(c2ccc(C#N)cc2F)Oc2cccc(C3CCN(Cc4nc5cc(-c6nnc(C(F)(F)F)[nH]6)ccc5n4C[C@@H]4CCO4)CC3)c2O1 (stereo partly drawn) [Compound 261a, 3-fluoro-4-(2-methyl-4-{1-[(1-{[(2S)-oxetan-2-yl]methyl}-5-[5-(trifluoromethyl)-4H-1,2,4-triazol-3-yl]-1H-1,3-benzodiazol-2-yl)methyl]piperidin-4-yl}-2H-1,3-benzodioxol-2-yl)benzonitrile] | 0.018 |
| Fc1cc(Cl)ccc1COc1cccc(C2CCN(Cc3nc4cc(-c5nnc(C(F)(F)F)[nH]5)cnc4n3C[C@@H]3CCO3)CC2F)n1 (stereo partly drawn) [Compound 500a, 2-[(4-chloro-2-fluorophenyl)methoxy]-6-[(3,4-trans)-3-fluoro-1-[(3-{[(2S)-oxetan-2-yl]methyl}-6-[5-(trifluoromethyl)-4H-1,2,4-triazol-3-yl]-3H-imidazo[4,5-b]pyridin-2-yl)methyl]piperidin-4-yl]pyridine] | 0.078 |
